Laboratory results as given in patent US9149038B2, “4-amino-6-(heterocyclic)picolinates and 6-amino-2-(heterocyclic)pyrimidine-4-carboxylates and their use as herbicides” (Dow AgroSciences LLC, priority 2013, dated 2015).
Where two headings read alike, the source gives them in different places.

Assays:
[1] = tested on: Key Broadleaf Weed and Crop Species; assay: Post-Emergent Test II: postemergent herbicidal activity, visual rating after 14 d (Table 7); assay type: in vivo; settings: post-emergence, 336 h; for pest or weed control at 35 g/ha: 35 g ai/ha; for pest or weed control at 70 g/ha: 70 g ai/ha; for pest or weed control at 140 g/ha: 140 g ai/ha
Summary of the method: (§1)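 Greenhouse-grown plants at the first or second true leaf stage (7-21 d, ~15 h photoperiod, 23-29° C day) were sprayed with compound in acetone/DMSO-based aqueous spray containing crop oil concentrate and Triton X-155 at 187 L/ha. Injury versus untreated plants was rated visually after 14 d on a 0-100 scale.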

[2] = tested on: Key Grass and Sedge Weeds as well as Grass Crops; assay: Post-Emergent Test II: postemergent herbicidal activity, visual rating after 14 d (Table 8); assay type: in vivo; settings: post-emergence, 336 h; for pest or weed control at 35 g/ha: 35 g ai/ha; for pest or weed control at 70 g/ha: 70 g ai/ha; for pest or weed control at 140 g/ha: 140 g ai/ha
Summary of the method: as §1

[3] = lambsquarters (Chenopodium album), read-out: Visual Growth Reduction (%) 14 Days After Application CHEAL
[4] = oilseed rape, canola (Brassica napus), read-out: Visual Growth Reduction (%) 14 Days After Application BRSNN
[5] = redroot pigweed (Amaranthus retroflexus), read-out: Visual Growth Reduction (%) 14 Days After Application AMARE
[6] = sunflower (Helianthus annuus), read-out: Visual Growth Reduction (%) 14 Days After Application HELAN
[7] = velvetleaf (Abutilon theophrasti), read-out: Visual Growth Reduction (%) 14 Days After Application ABUTH
[8] = wild poinsettia (Euphorbia heterophylla), read-out: Visual Growth Reduction (%) 14 Days After Application EPHHL
[9] = barnyardgrass (Echinochloa crus-galli), read-out: Visual Growth Reduction (%) 14 Days After Application ECHCG
[10] = giant foxtail (Setaria faberi), read-out: Visual Growth Reduction (%) 14 Days After Application SETFA
[11] = maize, corn (Zea mays), read-out: Visual Growth Reduction (%) 14 Days After Application ZEAMX
[12] = rice (Oryza sativa), read-out: Visual Growth Reduction (%) 14 Days After Application ORYSA
[13] = wheat, spring (Triticum aestivum), read-out: Visual Growth Reduction (%) 14 Days After Application TRZAS
[14] = yellow nutsedge (Cyperus esculentus), read-out: Visual Growth Reduction (%) 14 Days After Application CYPES

| Compound | pest or weed control at 35 g/ha [1, 3] [%] | pest or weed control at 70 g/ha [1, 3] [%] | pest or weed control at 140 g/ha [1, 3] [%] | pest or weed control at 35 g/ha [1, 4] [%] | pest or weed control at 70 g/ha [1, 4] [%] | pest or weed control at 140 g/ha [1, 4] [%] | pest or weed control at 35 g/ha [1, 5] [%] | pest or weed control at 70 g/ha [1, 5] [%] | pest or weed control at 140 g/ha [1, 5] [%] | pest or weed control at 35 g/ha [1, 6] [%] | pest or weed control at 70 g/ha [1, 6] [%] | pest or weed control at 140 g/ha [1, 6] [%] | pest or weed control at 35 g/ha [1, 7] [%] | pest or weed control at 70 g/ha [1, 7] [%] | pest or weed control at 140 g/ha [1, 7] [%] | pest or weed control at 35 g/ha [1, 8] [%] | pest or weed control at 70 g/ha [1, 8] [%] | pest or weed control at 140 g/ha [1, 8] [%] | pest or weed control at 35 g/ha [2, 9] [%] | pest or weed control at 70 g/ha [2, 9] [%] | other results |
| --- | --- | --- | --- | --- | --- | --- | --- | --- | --- | --- | --- | --- | --- | --- | --- | --- | --- | --- | --- | --- | --- |
| Nc1c(F)c(-c2ccc(F)c3c2OC(F)(F)O3)nc(C(=O)O)c1Cl [Compound 77] | 85 to 94 | 95 to 100 | 95 to 100 | 75 to 84 | 85 to 94 | 95 to 100 | 95 to 100 | 95 to 100 | 95 to 100 | 85 to 94 | 95 to 100 | 95 to 100 | 30 to 44 | 60 to 74 | 75 to 84 | 0 to 29 | 0 to 29 | 0 to 29 | 0 to 29 | 0 to 29 | pest or weed control at 140 g/ha [2, 9]: 0 to 29%; pest or weed control at 35 g/ha [2, 10]: 0 to 29%; pest or weed control at 70 g/ha [2, 10]: 0 to 29%; pest or weed control at 140 g/ha [2, 10]: 0 to 29%; pest or weed control at 35 g/ha [2, 11]: 0 to 29%; pest or weed control at 70 g/ha [2, 11]: 0 to 29%; pest or weed control at 140 g/ha [2, 11]: 0 to 29%; pest or weed control at 35 g/ha [2, 12]: 0 to 29%; pest or weed control at 70 g/ha [2, 12]: 0 to 29%; pest or weed control at 140 g/ha [2, 12]: 0 to 29%; pest or weed control at 35 g/ha [2, 13]: 45 to 59%; pest or weed control at 70 g/ha [2, 13]: 60 to 74%; pest or weed control at 140 g/ha [2, 13]: 60 to 74%; pest or weed control at 35 g/ha [2, 14]: 0 to 29%; pest or weed control at 70 g/ha [2, 14]: 0 to 29%; pest or weed control at 140 g/ha [2, 14]: 0 to 29% |
| COC(=O)c1nc(-c2cc3c(cc2F)OC(F)(F)O3)nc(N)c1Cl [Compound 56] | 0 to 29 | 0 to 29 | 0 to 29 | 0 to 29 | 0 to 29 | 0 to 29 | 0 to 29 | 0 to 29 | 0 to 29 | 85 to 94 | 85 to 94 | 85 to 94 | 0 to 29 | 0 to 29 | 0 to 29 | 60 to 74 | 95 to 100 | 95 to 100 | 75 to 84 | 75 to 84 | pest or weed control at 140 g/ha [2, 9]: 95 to 100%; pest or weed control at 35 g/ha [2, 10]: 60 to 74%; pest or weed control at 70 g/ha [2, 10]: 75 to 84%; pest or weed control at 140 g/ha [2, 10]: 75 to 84%; pest or weed control at 35 g/ha [2, 11]: 45 to 59%; pest or weed control at 70 g/ha [2, 11]: 60 to 74%; pest or weed control at 140 g/ha [2, 11]: 75 to 84%; pest or weed control at 35 g/ha [2, 12]: 0 to 29%; pest or weed control at 70 g/ha [2, 12]: 0 to 29%; pest or weed control at 140 g/ha [2, 12]: 0 to 29%; pest or weed control at 35 g/ha [2, 13]: 0 to 29%; pest or weed control at 70 g/ha [2, 13]: 30 to 44%; pest or weed control at 140 g/ha [2, 13]: 30 to 44%; pest or weed control at 35 g/ha [2, 14]: 0 to 29%; pest or weed control at 70 g/ha [2, 14]: 45 to 59%; pest or weed control at 140 g/ha [2, 14]: 45 to 59% |
